Key:
[1] = molecular target: Poly [ADP-ribose] polymerase 1 (Rattus norvegicus) (UniProt P27008); experiment: Inhibition of PARP1 in rat PC12 cells assessed as NAD+ recovery at 1 uM pre-treated for 1 hr before hydrogen peroxide addition followed by washout and compound treated again for 1 hr relative to control; assay type: cell-based; settings: PC-12
[2] = molecular target: Poly [ADP-ribose] polymerase 1 (Rattus norvegicus) (UniProt P27008); experiment: Inhibition of PARP1 in rat PC12 cells assessed as NAD+ recovery at 30 uM pre-treated for 1 hr before hydrogen peroxide addition followed by washout and compound treated again for 1 hr relative to 5H-phenanthridin-6-one; assay type: cell-based; settings: PC-12
[3] = molecular target: Poly [ADP-ribose] polymerase 1 (Rattus norvegicus) (UniProt P27008); experiment: Inhibition of PARP1 in rat PC12 cells assessed as NAD+ recovery at 10 uM pre-treated for 1 hr before hydrogen peroxide addition followed by washout and compound treated again for 1 hr relative to 5H-phenanthridin-6-one; assay type: cell-based; settings: PC-12
[4] = molecular target: Poly [ADP-ribose] polymerase 1 (Homo sapiens, UniProt P09874); experiment: Inhibition of recombinant human PARP1 by in vitro assay
Sequence of Poly [ADP-ribose] polymerase 1 (P09874 whole entry): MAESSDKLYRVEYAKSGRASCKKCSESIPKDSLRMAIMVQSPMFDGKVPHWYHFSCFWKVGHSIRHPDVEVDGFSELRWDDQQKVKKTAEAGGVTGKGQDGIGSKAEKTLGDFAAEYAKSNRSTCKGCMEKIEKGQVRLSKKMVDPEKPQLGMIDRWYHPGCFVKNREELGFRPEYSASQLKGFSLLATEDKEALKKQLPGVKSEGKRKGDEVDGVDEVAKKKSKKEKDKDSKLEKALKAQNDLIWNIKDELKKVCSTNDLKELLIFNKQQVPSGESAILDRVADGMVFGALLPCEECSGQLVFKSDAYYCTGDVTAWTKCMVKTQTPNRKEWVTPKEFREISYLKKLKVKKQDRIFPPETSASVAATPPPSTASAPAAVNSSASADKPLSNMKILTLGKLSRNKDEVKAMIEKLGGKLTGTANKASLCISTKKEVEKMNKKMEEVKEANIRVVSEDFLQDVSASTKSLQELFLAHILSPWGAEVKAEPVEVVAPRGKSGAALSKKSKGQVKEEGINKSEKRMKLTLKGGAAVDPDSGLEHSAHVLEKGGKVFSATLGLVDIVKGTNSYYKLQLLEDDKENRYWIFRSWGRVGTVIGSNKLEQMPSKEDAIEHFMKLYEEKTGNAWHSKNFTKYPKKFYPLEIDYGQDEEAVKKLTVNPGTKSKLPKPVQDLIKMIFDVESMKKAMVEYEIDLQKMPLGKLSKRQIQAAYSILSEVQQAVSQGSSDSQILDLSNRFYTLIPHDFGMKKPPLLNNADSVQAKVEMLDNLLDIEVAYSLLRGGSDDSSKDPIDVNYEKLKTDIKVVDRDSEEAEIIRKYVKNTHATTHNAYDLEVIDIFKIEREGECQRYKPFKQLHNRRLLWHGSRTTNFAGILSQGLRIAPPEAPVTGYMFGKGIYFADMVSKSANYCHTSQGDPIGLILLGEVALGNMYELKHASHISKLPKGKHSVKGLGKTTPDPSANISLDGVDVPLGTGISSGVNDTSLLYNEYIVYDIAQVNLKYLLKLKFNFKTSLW

[5] = molecular target: Poly [ADP-ribose] polymerase 1 (Rattus norvegicus) (UniProt P27008); experiment: Inhibition of PARP1 in rat PC12 cells assessed as NAD+ recovery at 3 uM pre-treated for 1 hr before hydrogen peroxide addition followed by washout and compound treated again for 1 hr relative to 5H-phenanthridin-6-one; assay type: cell-based; settings: PC-12

Sequence of Poly [ADP-ribose] polymerase 1 (Rattus norvegicus) (P27008 whole entry): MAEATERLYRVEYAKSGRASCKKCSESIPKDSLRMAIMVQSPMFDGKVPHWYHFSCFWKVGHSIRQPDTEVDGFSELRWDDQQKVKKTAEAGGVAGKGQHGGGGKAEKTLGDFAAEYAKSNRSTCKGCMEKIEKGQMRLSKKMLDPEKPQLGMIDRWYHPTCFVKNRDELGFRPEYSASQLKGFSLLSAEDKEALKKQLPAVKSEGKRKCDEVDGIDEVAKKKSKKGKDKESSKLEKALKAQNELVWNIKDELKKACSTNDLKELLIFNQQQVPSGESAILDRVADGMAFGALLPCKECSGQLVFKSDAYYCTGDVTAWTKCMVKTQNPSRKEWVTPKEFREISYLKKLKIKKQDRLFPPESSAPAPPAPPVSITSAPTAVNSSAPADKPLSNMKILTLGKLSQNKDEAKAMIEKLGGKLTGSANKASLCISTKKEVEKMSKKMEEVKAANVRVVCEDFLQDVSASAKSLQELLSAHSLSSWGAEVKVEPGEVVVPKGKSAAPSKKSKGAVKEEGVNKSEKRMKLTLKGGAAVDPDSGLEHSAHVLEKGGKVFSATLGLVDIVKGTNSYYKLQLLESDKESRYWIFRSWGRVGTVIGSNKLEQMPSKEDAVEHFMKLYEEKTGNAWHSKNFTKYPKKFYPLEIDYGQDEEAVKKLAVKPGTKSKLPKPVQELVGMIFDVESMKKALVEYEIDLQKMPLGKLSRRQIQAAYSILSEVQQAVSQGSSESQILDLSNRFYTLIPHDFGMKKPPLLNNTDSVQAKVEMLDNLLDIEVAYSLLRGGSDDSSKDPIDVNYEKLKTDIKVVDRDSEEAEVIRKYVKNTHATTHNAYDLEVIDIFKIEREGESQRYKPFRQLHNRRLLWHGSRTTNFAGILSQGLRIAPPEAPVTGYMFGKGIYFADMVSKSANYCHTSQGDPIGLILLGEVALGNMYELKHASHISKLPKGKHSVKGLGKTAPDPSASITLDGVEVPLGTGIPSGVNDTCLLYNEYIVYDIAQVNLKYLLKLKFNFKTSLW

SMILES | inhibition [1] [%] | inhibition [2] [%] | inhibition [3] [%] | IC50 [4] [nM] | inhibition [5] [%]
CC(C)(C)OC(=O)[C@@H]1CCCN1C(=O)CCC(=O)c1ccc2[nH]c3c4c(c5c(c3c2c1)C(=O)NC5=O)CCC4 | 39 | 98 |  |  | 
O=C(CN1CCCCC1)c1ccc2[nH]c3c4c(c5c(c3c2c1)C(=O)NC5=O)CCC4 | 14 | 50 |  |  | 
CN1N=C(c2ccc3[nH]c4c5c(c6c(c4c3c2)C(=O)NC6=O)CCC5)CCC1=O | 29 |  |  |  | 
O=C1CCC(c2ccc3[nH]c4c5c(c6c(c4c3c2)C(=O)NC6=O)CCC5)=NN1 | 29 |  | 49 |  | 
CC(C)(C)OC(=O)[C@@H]1CCCN1CC(=O)c1ccc2[nH]c3c4c(c5c(c3c2c1)C(=O)NC5=O)CCC4 | 24 | 88 |  |  | 
COC(=O)[C@@H]1CCCN1CC(=O)c1ccc2[nH]c3c4c(c5c(c3c2c1)C(=O)NC5=O)CCC4 | 27 | 100 |  | 12 | 
O=C1NC(=O)c2c1c1c(c3[nH]c4ccccc4c23)CCC1 | 30 | 42 |  |  | 
CC(C)(C)OC(=O)N1CCN(C(=O)CCC(=O)c2ccc3[nH]c4c5c(c6c(c4c3c2)C(=O)NC6=O)CCC5)CC1 | 19 | 29 |  |  | 
O=C(CN1CCOCC1)c1ccc2[nH]c3c4c(c5c(c3c2c1)C(=O)NC5=O)CCC4 | 38 |  | 63 | 13 | 
O=C(CN1CCC[C@H]1C(=O)O)c1ccc2[nH]c3c4c(c5c(c3c2c1)C(=O)NC5=O)CCC4 | 14 | 43 |  | 7 | 
CN1CCN(CC(=O)c2ccc3[nH]c4c5c(c6c(c4c3c2)C(=O)NC6=O)CCC5)CC1 | 7 |  | 43 |  | 

Next, values leading:

inhibition [1] [%] | inhibition [2] [%] | inhibition [3] [%] | IC50 [4] [nM] | inhibition [5] [%] | SMILES
8 | 42 |  |  |  | O=C(O)CCC(=O)c1ccc2[nH]c3c4c(c5c(c3c2c1)C(=O)NC5=O)CCC4
10 | 70 |  |  |  | CCN(CC)CC(=O)c1ccc2[nH]c3c4c(c5c(c3c2c1)C(=O)NC5=O)CCC4
11 |  |  |  |  | NC(=O)[C@@H]1CCCN1C(=O)CCC(=O)c1ccc2[nH]c3c4c(c5c(c3c2c1)C(=O)NC5=O)CCC4
32 | 92 |  |  |  | O=C(CCC(=O)N1CCCC1)c1ccc2[nH]c3c4c(c5c(c3c2c1)C(=O)NC5=O)CCC4
26 | 48 |  |  |  | CC(C)(C)OC(=O)NCCNC(=O)CCC(=O)c1ccc2[nH]c3c4c(c5c(c3c2c1)C(=O)NC5=O)CCC4
14 |  | 32 |  |  | NCCNC(=O)CCC(=O)c1ccc2[nH]c3c4c(c5c(c3c2c1)C(=O)NC5=O)CCC4
14 | 73 |  | 19 |  | CN(CC(=O)OC(C)(C)C)CC(=O)c1ccc2[nH]c3c4c(c5c(c3c2c1)C(=O)NC5=O)CCC4
25 | 55 |  |  |  | O=C(Cn1cncn1)c1ccc2[nH]c3c4c(c5c(c3c2c1)C(=O)NC5=O)CCC4
24 |  | 26 |  |  | O=C(CCC(=O)c1ccc2[nH]c3c4c(c5c(c3c2c1)C(=O)NC5=O)CCC4)NCCO
55 | 59 |  |  |  | O=C(CCC(=O)N1CCCCC1)c1ccc2[nH]c3c4c(c5c(c3c2c1)C(=O)NC5=O)CCC4
4 |  |  | 2 | 14 | O=C(CCC(=O)N1CCC[C@H]1C(=O)O)c1ccc2[nH]c3c4c(c5c(c3c2c1)C(=O)NC5=O)CCC4
14 | 45 |  |  |  | CN(CC(=O)O)CC(=O)c1ccc2[nH]c3c4c(c5c(c3c2c1)C(=O)NC5=O)CCC4
38 | 65 |  |  |  | O=C(CCC(=O)N1CCOCC1)c1ccc2[nH]c3c4c(c5c(c3c2c1)C(=O)NC5=O)CCC4
10 |  |  |  |  | O=C(CCC(=O)N1CCNCC1)c1ccc2[nH]c3c4c(c5c(c3c2c1)C(=O)NC5=O)CCC4
41 | 78 |  |  |  | CCN(CC)C(=O)CCC(=O)c1ccc2[nH]c3c4c(c5c(c3c2c1)C(=O)NC5=O)CCC4

Source: ChEMBL document CHEMBL1933047, “Novel poly(ADP-ribose) polymerase-1 inhibitors” (Bioorg Med Chem Lett, 2012)
